Test results as given in publication PMC11062922 (Nature Chemical Biology, 2023).
Like-named read-outs stand apart in the source and are kept apart here.

Experiments:
[1] = biological target: T1, endogenous kinases and other proteins enriched by Kinobeads from mixed lysates of K-562, COLO-205, MV-4-11, SK-N-BE(2) and OVCAR-8 (Homo sapiens, UniProt O43353); assay: Kinobeads competition binding profiling, two doses (100 nM and 1 µM); details: target RIPK2; read-out: apparent Kd;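 further: inhibitor preincubated 45 min at 4 °C in cell lysate, then bead pulldown. Bound protein quantified by label-free mass spectrometry relative to DMSO vehicle control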
T1 construct: to maximize the representation of endogenous proteins; endogenous in cells

[2] = system: endogenous kinases and other proteins enriched by Kinobeads from mixed lysates of K-562, COLO-205, MV-4-11, SK-N-BE(2) and OVCAR-8; assay: as above; set-up: species or system human; details: in words
ACOX1 = biological target: T2, ACOX1 (Homo sapiens, UniProt Q15067); assay: Kinobeads two-dose competition binding: ACOX1; details: sheet CATDS matrix 2; Gene Name ACOX1;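 further: competition of compounds with immobilized broad-spectrum kinase inhibitor beads in cell lysate at 100 and 1,000 nM, 45 min at 4 °C, bead-bound protein quantified by label-free MS versus DMSO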
T2 construct: endogenous in cells
T2 sequence (Q15067 1-660): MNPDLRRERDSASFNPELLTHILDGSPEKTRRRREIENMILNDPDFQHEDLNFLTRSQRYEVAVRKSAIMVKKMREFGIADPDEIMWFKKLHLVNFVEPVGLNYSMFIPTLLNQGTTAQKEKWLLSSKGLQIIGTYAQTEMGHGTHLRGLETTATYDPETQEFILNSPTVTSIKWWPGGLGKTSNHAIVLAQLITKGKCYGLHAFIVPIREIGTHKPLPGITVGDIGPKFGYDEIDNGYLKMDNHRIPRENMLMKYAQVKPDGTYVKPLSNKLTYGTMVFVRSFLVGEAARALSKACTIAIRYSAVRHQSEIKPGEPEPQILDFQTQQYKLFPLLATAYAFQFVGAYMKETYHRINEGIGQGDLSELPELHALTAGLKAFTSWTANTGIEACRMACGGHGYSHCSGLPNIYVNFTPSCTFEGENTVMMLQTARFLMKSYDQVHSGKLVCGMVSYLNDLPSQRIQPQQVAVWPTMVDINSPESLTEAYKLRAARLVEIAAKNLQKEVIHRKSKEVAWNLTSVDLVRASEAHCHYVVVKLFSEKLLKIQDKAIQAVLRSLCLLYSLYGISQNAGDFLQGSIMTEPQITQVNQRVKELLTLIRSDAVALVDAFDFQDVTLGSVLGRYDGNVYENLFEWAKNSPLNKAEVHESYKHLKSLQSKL

AAK1 = biological target: T3, AAK1 (Homo sapiens, UniProt Q2M2I8); assay: Kinobeads two-dose competition binding: AAK1;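 further: kinobeads competition pulldown from cell lysate, compound preincubated 45 min at 4 °C, bead-bound protein measured by label-free mass spectrometry against DMSO vehicle control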
T3 construct: to maximize the representation of endogenous proteins; endogenous in cells
T3 sequence (Q2M2I8 whole entry): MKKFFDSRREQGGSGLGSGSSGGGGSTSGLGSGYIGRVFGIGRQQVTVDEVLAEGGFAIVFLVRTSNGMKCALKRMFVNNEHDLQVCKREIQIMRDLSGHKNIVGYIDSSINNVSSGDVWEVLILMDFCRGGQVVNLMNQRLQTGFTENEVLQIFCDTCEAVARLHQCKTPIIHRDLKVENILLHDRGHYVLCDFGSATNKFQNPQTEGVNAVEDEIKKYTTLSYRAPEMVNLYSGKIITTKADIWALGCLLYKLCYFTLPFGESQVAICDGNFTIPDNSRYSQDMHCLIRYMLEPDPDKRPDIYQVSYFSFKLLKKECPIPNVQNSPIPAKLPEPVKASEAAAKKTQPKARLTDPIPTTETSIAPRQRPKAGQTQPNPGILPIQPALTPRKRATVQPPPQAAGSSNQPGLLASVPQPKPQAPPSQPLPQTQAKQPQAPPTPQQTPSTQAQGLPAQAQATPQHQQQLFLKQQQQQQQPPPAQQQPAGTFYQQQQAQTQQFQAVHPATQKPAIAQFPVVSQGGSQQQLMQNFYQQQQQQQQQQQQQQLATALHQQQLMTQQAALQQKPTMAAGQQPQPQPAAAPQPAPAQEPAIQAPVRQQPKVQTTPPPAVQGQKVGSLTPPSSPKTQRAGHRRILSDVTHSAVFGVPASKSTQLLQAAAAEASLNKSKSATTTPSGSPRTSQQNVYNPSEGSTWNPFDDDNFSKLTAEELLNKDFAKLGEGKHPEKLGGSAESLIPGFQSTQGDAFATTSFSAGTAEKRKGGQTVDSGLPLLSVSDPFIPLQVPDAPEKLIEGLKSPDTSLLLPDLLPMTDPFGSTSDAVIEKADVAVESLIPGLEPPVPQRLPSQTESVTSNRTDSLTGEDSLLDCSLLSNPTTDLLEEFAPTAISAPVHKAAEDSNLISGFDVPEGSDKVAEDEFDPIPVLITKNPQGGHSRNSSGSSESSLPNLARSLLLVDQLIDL

ABL1 [3] = biological target: T4, ABL1 (Homo sapiens, UniProt P00519); assay: Kinobeads two-dose competition binding: ABL1; details: sheet "Kinobeads Drugmatrix - all"; unit inferred; read-out: Kinobeads Drugmatrix - all: apparent Kd, ABL1
T4 sequence (P00519 28-1130 limits assumed): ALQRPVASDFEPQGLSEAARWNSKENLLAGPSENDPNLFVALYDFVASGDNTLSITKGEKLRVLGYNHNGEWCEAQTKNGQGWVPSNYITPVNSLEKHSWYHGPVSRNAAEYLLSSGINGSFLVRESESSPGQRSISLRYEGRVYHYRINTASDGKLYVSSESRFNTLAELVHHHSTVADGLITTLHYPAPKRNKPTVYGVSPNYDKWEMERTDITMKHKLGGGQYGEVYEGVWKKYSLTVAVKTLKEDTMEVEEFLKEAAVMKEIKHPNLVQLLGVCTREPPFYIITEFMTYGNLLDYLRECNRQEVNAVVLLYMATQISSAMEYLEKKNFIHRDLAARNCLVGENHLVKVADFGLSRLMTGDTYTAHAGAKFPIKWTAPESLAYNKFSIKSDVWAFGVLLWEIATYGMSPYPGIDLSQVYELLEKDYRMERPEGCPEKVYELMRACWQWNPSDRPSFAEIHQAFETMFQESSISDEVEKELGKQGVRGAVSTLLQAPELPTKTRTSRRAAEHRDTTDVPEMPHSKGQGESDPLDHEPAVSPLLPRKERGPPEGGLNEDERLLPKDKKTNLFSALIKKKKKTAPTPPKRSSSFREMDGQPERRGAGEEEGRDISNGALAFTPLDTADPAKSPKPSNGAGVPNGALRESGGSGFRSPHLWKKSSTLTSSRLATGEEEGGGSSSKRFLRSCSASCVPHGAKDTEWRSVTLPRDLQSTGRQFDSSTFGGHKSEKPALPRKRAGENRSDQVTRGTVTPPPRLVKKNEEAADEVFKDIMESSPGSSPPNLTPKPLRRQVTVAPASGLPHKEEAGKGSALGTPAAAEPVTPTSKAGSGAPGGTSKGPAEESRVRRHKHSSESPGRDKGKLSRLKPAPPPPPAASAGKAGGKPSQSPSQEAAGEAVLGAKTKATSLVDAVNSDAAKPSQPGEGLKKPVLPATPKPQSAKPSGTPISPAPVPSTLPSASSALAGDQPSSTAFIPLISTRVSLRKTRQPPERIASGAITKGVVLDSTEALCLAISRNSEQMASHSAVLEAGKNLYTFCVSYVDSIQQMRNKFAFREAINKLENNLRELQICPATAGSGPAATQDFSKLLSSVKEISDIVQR

ABL2 [4] = biological target: T5, ABL2 (Homo sapiens, UniProt P42684); assay: Kinobeads two-dose competition binding: ABL2; details: sheet "Kinobeads Drugmatrix - all"; unit inferred; read-out: Kinobeads Drugmatrix - all: apparent Kd, ABL2
T5 construct: endogenous in cells
T5 sequence (P42684 whole entry): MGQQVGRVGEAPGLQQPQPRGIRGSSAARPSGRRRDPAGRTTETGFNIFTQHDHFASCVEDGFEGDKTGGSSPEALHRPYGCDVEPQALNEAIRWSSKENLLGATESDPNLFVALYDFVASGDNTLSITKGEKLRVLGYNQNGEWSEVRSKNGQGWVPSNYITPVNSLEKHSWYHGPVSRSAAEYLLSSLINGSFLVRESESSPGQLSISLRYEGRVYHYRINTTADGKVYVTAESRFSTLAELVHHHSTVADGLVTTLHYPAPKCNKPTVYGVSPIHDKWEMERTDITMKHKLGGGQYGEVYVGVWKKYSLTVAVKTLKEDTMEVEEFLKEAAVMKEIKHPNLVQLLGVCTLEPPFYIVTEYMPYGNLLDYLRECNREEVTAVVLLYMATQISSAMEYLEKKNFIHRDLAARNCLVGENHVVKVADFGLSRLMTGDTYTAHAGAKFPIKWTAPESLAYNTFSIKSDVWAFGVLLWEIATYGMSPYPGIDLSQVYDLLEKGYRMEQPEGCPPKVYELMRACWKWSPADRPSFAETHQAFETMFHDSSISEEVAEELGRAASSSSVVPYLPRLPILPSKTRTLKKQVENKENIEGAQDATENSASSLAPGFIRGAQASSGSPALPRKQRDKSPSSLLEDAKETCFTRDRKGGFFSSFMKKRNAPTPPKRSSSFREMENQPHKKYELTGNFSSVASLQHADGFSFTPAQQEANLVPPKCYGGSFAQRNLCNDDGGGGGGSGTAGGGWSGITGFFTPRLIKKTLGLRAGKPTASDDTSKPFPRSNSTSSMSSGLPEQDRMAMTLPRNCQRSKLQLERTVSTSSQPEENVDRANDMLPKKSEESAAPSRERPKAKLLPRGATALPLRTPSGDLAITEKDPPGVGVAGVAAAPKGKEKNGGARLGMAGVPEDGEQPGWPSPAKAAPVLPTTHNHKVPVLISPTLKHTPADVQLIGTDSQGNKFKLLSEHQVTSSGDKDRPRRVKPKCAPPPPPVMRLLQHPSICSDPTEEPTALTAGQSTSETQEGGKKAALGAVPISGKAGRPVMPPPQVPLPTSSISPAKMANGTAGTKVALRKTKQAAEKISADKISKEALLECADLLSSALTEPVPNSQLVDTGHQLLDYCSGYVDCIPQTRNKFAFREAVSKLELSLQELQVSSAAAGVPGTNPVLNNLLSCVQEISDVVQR

ACAD11 [5] = biological target: T6, ACAD11 (Homo sapiens, UniProt Q709F0); assay: Kinobeads two-dose competition binding: ACAD11; details: sheet "Kinobeads Drugmatrix - all"; unit inferred; read-out: Kinobeads Drugmatrix - all: apparent Kd, ACAD11
T6 construct: endogenous in cells
T6 sequence (Q709F0 1-780): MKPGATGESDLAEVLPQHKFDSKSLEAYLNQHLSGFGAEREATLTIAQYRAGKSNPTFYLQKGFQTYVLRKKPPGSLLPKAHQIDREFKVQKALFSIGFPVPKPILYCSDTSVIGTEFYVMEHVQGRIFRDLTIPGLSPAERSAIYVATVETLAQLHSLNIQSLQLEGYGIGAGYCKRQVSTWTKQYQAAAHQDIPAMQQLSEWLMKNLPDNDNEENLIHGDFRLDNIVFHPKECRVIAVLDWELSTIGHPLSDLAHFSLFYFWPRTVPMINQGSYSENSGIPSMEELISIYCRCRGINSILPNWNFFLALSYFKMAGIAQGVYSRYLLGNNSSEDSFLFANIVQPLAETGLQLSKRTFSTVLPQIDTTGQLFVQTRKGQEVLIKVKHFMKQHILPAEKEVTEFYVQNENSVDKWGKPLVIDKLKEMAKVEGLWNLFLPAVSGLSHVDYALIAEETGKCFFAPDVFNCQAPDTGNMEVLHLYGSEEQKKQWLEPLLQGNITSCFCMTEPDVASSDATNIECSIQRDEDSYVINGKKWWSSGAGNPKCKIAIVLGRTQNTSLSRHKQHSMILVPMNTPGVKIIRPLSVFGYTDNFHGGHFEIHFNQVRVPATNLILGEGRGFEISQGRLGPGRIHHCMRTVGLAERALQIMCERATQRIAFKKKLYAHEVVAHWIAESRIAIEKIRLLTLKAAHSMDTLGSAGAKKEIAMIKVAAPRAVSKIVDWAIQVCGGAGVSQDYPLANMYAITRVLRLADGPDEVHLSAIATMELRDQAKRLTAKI

ABL1 [6] = biological target: T4, ABL1; assay: Kinobeads two-dose competition binding: ABL1; details: sheet CATDS matrix 2; Gene Name ABL1
ABL2 [7] = biological target: T5, ABL2; assay: Kinobeads two-dose competition binding: ABL2; details: sheet CATDS matrix 2; Gene Name ABL2
ACAD11 [8] = biological target: T6, ACAD11; assay: Kinobeads two-dose competition binding: ACAD11; details: sheet CATDS matrix 2; Gene Name ACAD11
PKN3 = PKN3 (Homo sapiens, UniProt Q6P5Z2); set-up: full-length PKN3, CSNK2A1 or CSNK2A2 ORF; host or cells: HEK293T; details: reported for the most potent 4-anilinoquin(az)oline; cited from earlier work
[9] = biological target: T7, endogenous kinases and other proteins enriched by Kinobeads from mixed lysates of K-562, COLO-205, MV-4-11, SK-N-BE(2) and OVCAR-8 (Homo sapiens, UniProt P35916); assay: Kinobeads competition binding profiling, two doses (100 nM and 1 µM); details: target FLT4; read-out: apparent Kd;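 further: inhibitor preincubated 45 min at 4 °C in cell lysate, then bead pulldown. Bound protein quantified by label-free mass spectrometry relative to DMSO vehicle control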
T7 construct: endogenous in cells

[10] = biological target: T8, endogenous kinases and other proteins enriched by Kinobeads from mixed lysates of K-562, COLO-205, MV-4-11, SK-N-BE(2) and OVCAR-8 (Homo sapiens, UniProt Q8NI60); assay: as above; details: target ADCK3; read-out: apparent Kd
T8 construct: to maximize the representation of endogenous proteins; endogenous in cells

[11] = biological target: T9, endogenous kinases and other proteins enriched by Kinobeads from mixed cancer cell lysates (Homo sapiens, UniProt O75822); assay: Kinobeads pulldown, full dose-response (eight doses); format: binding; details: target EIF3J; in nM;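 further: competition with Kinobeads ε after inhibitor preincubation in lysate (5 mg/ml protein) for 45 min at 4 °C, DMSO control, doses 0.3–1,000 nM, label-free LC–MS/MS quantification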
T9 construct: to maximize the representation of endogenous proteins; endogenous in cells

[12] = biological target: T10, endogenous kinases and other proteins enriched by Kinobeads from mixed cancer cell lysates (Homo sapiens, UniProt P16083); assay: as above; format: binding; details: target NQO2; in nM
T10 construct: endogenous in cells

[13] = biological target: T11, endogenous kinases and other proteins enriched by Kinobeads from mixed cancer cell lysates (Homo sapiens, UniProt P19784); assay: as above; format: binding; details: target CSNK2A2; in nM
T11 construct: endogenous in cells

[14] = biological target: T12, endogenous kinases and other proteins enriched by Kinobeads from mixed cancer cell lysates (Homo sapiens, UniProt P67870); assay: as above; format: binding; details: target CSNK2B; in nM
T12 construct: endogenous in cells

[15] = biological target: T13, endogenous kinases and other proteins enriched by Kinobeads from mixed cancer cell lysates (Homo sapiens, UniProt P68400); assay: as above; format: binding; details: target CSNK2A1;CSNK2A3; in nM
T13 construct: endogenous in cells
T13 sequence (P68400 whole entry): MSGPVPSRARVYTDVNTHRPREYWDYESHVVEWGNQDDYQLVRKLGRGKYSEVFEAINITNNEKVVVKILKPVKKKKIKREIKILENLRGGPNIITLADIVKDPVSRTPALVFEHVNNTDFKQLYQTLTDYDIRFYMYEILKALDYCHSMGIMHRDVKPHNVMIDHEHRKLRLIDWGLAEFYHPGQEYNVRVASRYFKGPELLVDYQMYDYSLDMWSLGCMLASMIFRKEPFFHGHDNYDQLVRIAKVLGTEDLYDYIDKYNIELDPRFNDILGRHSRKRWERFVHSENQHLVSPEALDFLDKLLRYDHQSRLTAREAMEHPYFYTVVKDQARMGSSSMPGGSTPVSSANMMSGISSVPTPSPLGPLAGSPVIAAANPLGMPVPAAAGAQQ

[16] = biological target: T14, endogenous kinases and other proteins enriched by Kinobeads from mixed cancer cell lysates (Homo sapiens, UniProt Q86TW2); assay: as above; format: binding; details: target ADCK1; in nM
T14 construct: endogenous in cells

[17] = biological target: T15, endogenous kinases and other proteins enriched by Kinobeads from mixed cancer cell lysates (Homo sapiens, UniProt Q9Y616); assay: as above; format: binding; details: target IRAK3; in nM
T15 construct: endogenous in cells

[18] = system: IL-10 secretion in primary bone marrow-derived dendritic cells (BMDCs); assay: IL-10 cytokine secretion assay (ELISA) in Zymosan-stimulated primary BMDCs; format: cell-based, mouse; details: murine BMDCs, inhibitor 30 min before Zymosan stimulation
Protocol: A subsequent full dose–response experiment confirmed potent and selective binding to SYK ( Kdapp = 58 nM, […] = 0.60; Extended Data Fig. 5a,b). […] One of the effects of Zymosan is that it activates Dectin-1 signaling, in turn activating SYK and leading to increased IL-10 cytokine production (Fig. 3c)[34]. Treatment of cells with the respective SYK inhibitors before Zymosan stimulation indeed led to decreased levels of IL-10 in a dose-dependent fashion (Fig. 3d). […] In line with the cytokine readout, we observed a dose depended reduction of pTyr525/526 indicating SYK inhibition in live cells (Fig. 3e and Extended Data Fig. 5c).
Primary BMDCs were obtained from 9-week-old C57BL/6 mice that were maintained under standard specific pathogen-free conditions. BMDCs were differentiated for 7 days in Roswell Park Memorial Institute medium (Gibco) and granulocyte-macrophage colony-stimulating factor. On day seven, BMDCs were seeded in 96-well plates at 10^5 cells per well in 100 µl of culture medium followed by incubation for 4 h at 37 °C. Subsequently, cells were incubated with SYK inhibitors for 30 min followed by stimulation with Zymosan (final concentration of 50 µg ml^−1; Invivogen) and dispersed in culture medium for 24 h. […] For cytokine secretion quantification, cell culture medium was collected and concentrations of IL-10 in the supernatant were determined using mouse enzyme-linked immunosorbent assay kits (IL-10: Invitrogen) according to the manufacturer’s protocol. Experiments were performed in biological triplicates.

ERN1 = biological target: T16, ERN1 (Homo sapiens, UniProt O75460); set-up: method as in chemicalprobes.org; details: truncated human IRE1 alpha WT (AA 469-977); ref chemicalprobes.org; cited from earlier work
T16 construct: endogenous in cells

XBP1 splicing in cells = system: XBP1 splicing in cells; set-up: method as in chemicalprobes.org; details: ref chemicalprobes.org; read-out: Potency value in cells (IC50); cited from earlier work
LCK = system: LCK; set-up: method as in chemicalprobes.org; details: @ 1 mM ATP, ref chemicalprobes.org; cited from earlier work
[19] = system: Concanavalin A-induced cytokine production in Whole Blood; set-up: method as in chemicalprobes.org; details: ref chemicalprobes.org, read-out: Potency value in cells (EC50); cited from earlier work
PAK4 = biological target: T17, PAK4 (Homo sapiens, UniProt O96013); assay: Kinobeads full dose-response competition binding: PAK4; details: Gene Name PAK4, doses in nM
T17 construct: a mixture of lysates from five cancer cell lines; endogenous in cells
T17 sequence (O96013 whole entry): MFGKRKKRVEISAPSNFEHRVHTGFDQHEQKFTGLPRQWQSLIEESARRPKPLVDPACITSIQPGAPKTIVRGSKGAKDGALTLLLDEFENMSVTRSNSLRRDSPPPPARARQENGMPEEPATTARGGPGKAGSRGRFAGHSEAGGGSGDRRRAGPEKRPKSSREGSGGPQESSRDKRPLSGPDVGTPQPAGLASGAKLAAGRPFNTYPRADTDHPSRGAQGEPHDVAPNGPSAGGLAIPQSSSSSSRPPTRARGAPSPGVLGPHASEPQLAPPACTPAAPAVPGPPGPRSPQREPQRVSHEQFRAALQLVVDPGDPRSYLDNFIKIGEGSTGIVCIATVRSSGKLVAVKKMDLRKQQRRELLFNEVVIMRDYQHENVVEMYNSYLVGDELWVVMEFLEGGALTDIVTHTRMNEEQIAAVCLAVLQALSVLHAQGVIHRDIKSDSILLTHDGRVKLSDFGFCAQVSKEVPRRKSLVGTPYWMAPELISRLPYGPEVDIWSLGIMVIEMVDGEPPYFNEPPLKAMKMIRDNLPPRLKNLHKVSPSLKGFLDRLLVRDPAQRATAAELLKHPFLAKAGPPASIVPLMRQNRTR

PRKCA = biological target: T18, PRKCA (Homo sapiens, UniProt P17252); assay: Kinobeads full dose-response competition binding: PRKCA; details: Gene Name PRKCA, doses in nM
T18 construct: endogenous in cells

[20] = system: CSF1R, FLT3, KIT, PDGFRB, PDGFRA; set-up: method as in chemicalprobes.org; details: ref chemicalprobes.org, cited from earlier work
[21] = system: CSF1R, FLT3, KIT, PDGFRB, PDGFRA; set-up: method as in chemicalprobes.org; details: 2nd of 4 values listed for 5 targets; ref chemicalprobes.org; read-out: Potency value in cells (IC50); cited from earlier work
[22] = EC50 with Correction, read-out: apparent Kd

CNC(=O)c1cncc(/C=C/c2c(Cl)cccc2Cl)c1 [GW445014X]
potency estimated from few doses [1]: 773 nM

NCC(C(=O)Nc1cc(Br)c(-c2ccnc3[nH]ccc23)s1)c1ccccc1 (stereo not drawn) [GSK1269851A]
selectivity in the Kinobeads assay (CATDSmost potent) [2]: unselective | CATDS (ACOX1): 0 | potency estimated from few doses (AAK1; sheet "Kinobeads Drugmatrix - all", unit inferred, same values below 1000 recur in sheet "nanomolar", read-out: Kinobeads Drugmatrix - all: apparent Kd, AAK1): 84.4 nM | CATDS (AAK1; sheet CATDS matrix 2, Gene Name AAK1): 0.03418 | potency estimated from few doses (ABL1 [3]): > 1000 nM | potency estimated from few doses (ABL2 [4]): 433 nM | potency estimated from few doses (ACAD11 [5]): > 1000 nM | CATDS (ABL1 [6]): 0 | CATDS (ABL2 [7]): 0.01467 | CATDS (ACAD11 [8]): 0

COc1cc(Nc2ccnc3cc(I)ccc23)cc(OC)c1OC [UNC-CA94]
in-cell target engagement PKN3 (PKN3): 1.3 µM

CCS(=O)(=O)c1ccc(OC)c(Nc2ncc(-c3cccc(-c4ccccc4F)c3)o2)c1 [GW678313X]
potency estimated from few doses [9]: 423 nM

CNC(=O)c1cncc(/C=C/c2ccccc2Cl)c1 [GW445017X]
potency estimated from few doses [10]: 747 nM

c1cn2cc(-c3ccc4cn[nH]c4c3)nc(Nc3ccc(N4CCOCC4)cc3)c2n1 [entospletinib]
EC50 [11]: 1609.61 | EC50 [12]: 295.4 | EC50 [13]: 1314.91 | EC50 [14]: 940.697 | EC50 [15]: 1585.19 | EC50 [16]: 16437.9 | EC50 [17]: 4708.37 | IL-10 levels [18]: dose-dependent reduction

Cc1ccc2c(NS(=O)(=O)c3ccccc3Cl)cccc2c1Oc1ncccc1-c1ccnc(N[C@H]2CCCNC2)n1 [AMG-18]
Potency value (ERN1): 13 nM | IC50 (XBP1 splicing in cells): 99 nM

COc1cc(-c2nn([C@H]3CC[C@H](N4CCN(C(C)=O)CC4)CC3)c3ncnc(N)c23)ccc1NC(=O)c1cc2ccccc2n1C [Compound A-770041]
Potency value (LCK): 147 nM @ 1 mM ATP | EC50 [19]: 80 nM

Cc1cccc(Nc2nc(N[C@H]3CCCC[C@H]3N)ncc2C(N)=O)c1 [GSK986310C]
IL-10 levels [18]: dose-dependent reduction | Kd (PAK4; [22]): 65.9 nM | EC50 (PAK4; eight-dose curve fit): 135 nM | Kd (PRKCA; [22]): 272 nM | EC50 (PRKCA; eight-dose curve fit): 446 nM

CCN1C(C)(C)CC(Oc2ccc(C(=O)Nc3ccc(NC(=O)Nc4cc(C(C)(C)C)on4)cc3)nc2)CC1(C)C [AC710]
Potency value ([20]; 1st of 4 values listed for 5 targets): 0.5 nM | Potency value ([20]; 2nd of 4 values listed for 5 targets): 0.6 nM | Potency value ([20]; 3rd of 4 values listed for 5 targets): 1 nM | Potency value ([20]; 4th of 4 values listed for 5 targets): 1.3 nM | IC50 [21]: 2 nM
